# Publication PMC11881577, “In vitro and in vivo activity of 1,2,3,4,6-O-pentagalloyl-glucose against Candida albicans” (Antimicrobial Agents and Chemotherapy, 2025)
# Experiments:
# CaEno1 = target: T1, CaEno1 (Candida albicans, UniProt P30575); experiment: spectrophotometric enolase assay (PEP formation at […] nm) on purified enzyme; supported by DARTS; format: biochemical
# T1 construct: gene ENO1; recombinant, 6 × His tag, expressed in E. coli BL21(DE3)
# hEno1 = target: T2, hEno1 (Homo sapiens, UniProt P06733); experiment: spectrophotometric enolase assay (PEP formation at […] nm) on purified enzyme; format: biochemical
# T2 construct: gene ENO1; recombinant hEno1, expressed and purified using the same procedure as CaEno1
# T2 sequence (P06733 2-434): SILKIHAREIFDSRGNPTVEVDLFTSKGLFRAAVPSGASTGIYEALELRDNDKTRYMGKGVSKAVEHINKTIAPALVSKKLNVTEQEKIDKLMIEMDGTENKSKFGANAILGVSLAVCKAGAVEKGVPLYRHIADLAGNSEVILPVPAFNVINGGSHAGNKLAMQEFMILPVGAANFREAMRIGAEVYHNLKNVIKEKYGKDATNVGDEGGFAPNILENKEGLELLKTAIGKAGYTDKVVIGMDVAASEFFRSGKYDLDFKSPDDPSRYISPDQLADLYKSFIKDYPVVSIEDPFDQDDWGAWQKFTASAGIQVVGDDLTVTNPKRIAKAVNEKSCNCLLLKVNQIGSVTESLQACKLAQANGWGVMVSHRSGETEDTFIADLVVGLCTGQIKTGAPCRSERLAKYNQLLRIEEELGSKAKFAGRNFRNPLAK
# T1 sequence (P30575 whole entry): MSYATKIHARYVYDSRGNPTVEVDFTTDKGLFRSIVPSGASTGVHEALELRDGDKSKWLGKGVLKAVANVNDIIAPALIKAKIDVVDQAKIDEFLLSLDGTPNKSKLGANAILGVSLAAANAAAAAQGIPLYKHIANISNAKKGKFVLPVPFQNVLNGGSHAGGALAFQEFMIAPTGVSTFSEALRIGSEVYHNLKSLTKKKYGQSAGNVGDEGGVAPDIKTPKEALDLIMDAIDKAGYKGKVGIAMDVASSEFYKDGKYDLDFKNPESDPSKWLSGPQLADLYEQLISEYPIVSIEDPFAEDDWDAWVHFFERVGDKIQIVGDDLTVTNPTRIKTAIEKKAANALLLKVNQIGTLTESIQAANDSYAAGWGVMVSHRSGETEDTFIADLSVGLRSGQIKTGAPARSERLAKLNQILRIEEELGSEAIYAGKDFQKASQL
smiles,measurement,setting,value
"O=C(OC[C@H]1O[C@@H](OC(=O)c2cc(O)c(O)c(O)c2)[C@H](OC(=O)c2cc(O)c(O)c(O)c2)[C@@H](OC(=O)c2cc(O)c(O)c(O)c2)[C@@H]1OC(=O)c1cc(O)c(O)c(O)c1)c1cc(O)c(O)c(O)c1 [1,2,3,4,6-O-pentagalloyl-glucose]",Ki,CaEno1,1.1 ± 0.14 µM
same,IC50,hEno1,1.5 ± 0.27 µM
